Test results as given in US8192962B2, “Processes for detecting toxic substances” (Daikin Industries, Ltd., priority 2001, dated 2012).

Test system: Genes belonging to other category
Assay: DNA chip mRNA expression in yeast, genes belonging to other category (Table 9)
Type: cell-based, Saccharomyces cerevisiae S288C
In short: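 Chemical exposure: 2 h, log-phase S. cerevisiae S288C, YPD, 25° C., dose set to inhibit growth without death. Profiling: mRNA labeled by reverse transcription with Cy3- or Cy5-dUTP, hybridized to whole-genome array. Output: fluorescence ratio against untreated culture.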

CN(C)C(=S)SSC(=S)N(C)C [(10), Tetramethylthiuram disulfide]
The level of expressed mRNA in the presence of chemical substance/The level of expressed mRNA in the absence of chemical substance (yeast gene YJR058C): 2.6
The level of expressed mRNA in the presence of chemical substance/The level of expressed mRNA in the absence of chemical substance (yeast gene YJR086W): 1.1
The level of expressed mRNA in the presence of chemical substance/The level of expressed mRNA in the absence of chemical substance (yeast gene YJR110W): 2.3
The level of expressed mRNA in the presence of chemical substance/The level of expressed mRNA in the absence of chemical substance (yeast gene YJR123W): 0.5
The level of expressed mRNA in the presence of chemical substance/The level of expressed mRNA in the absence of chemical substance (yeast gene YKL007W): 2.4
The level of expressed mRNA in the presence of chemical substance/The level of expressed mRNA in the absence of chemical substance (yeast gene YKL008C): 0.4
The level of expressed mRNA in the presence of chemical substance/The level of expressed mRNA in the absence of chemical substance (yeast gene YKL013C): 1.4
The level of expressed mRNA in the presence of chemical substance/The level of expressed mRNA in the absence of chemical substance (yeast gene YKL039W): 3.3
The level of expressed mRNA in the presence of chemical substance/The level of expressed mRNA in the absence of chemical substance (yeast gene YKL041W): 1.5
The level of expressed mRNA in the presence of chemical substance/The level of expressed mRNA in the absence of chemical substance (yeast gene YKL079W): 2.0
The level of expressed mRNA in the presence of chemical substance/The level of expressed mRNA in the absence of chemical substance (yeast gene YKL096W): 0.5
The level of expressed mRNA in the presence of chemical substance/The level of expressed mRNA in the absence of chemical substance (yeast gene YKL117W): 2.1
The level of expressed mRNA in the presence of chemical substance/The level of expressed mRNA in the absence of chemical substance (yeast gene YKL139W): 1.5
The level of expressed mRNA in the presence of chemical substance/The level of expressed mRNA in the absence of chemical substance (yeast gene YKL165C): 0.4
The level of expressed mRNA in the presence of chemical substance/The level of expressed mRNA in the absence of chemical substance (yeast gene YKL171W): 1.8
The level of expressed mRNA in the presence of chemical substance/The level of expressed mRNA in the absence of chemical substance (yeast gene YKL193C): 1.6
The level of expressed mRNA in the presence of chemical substance/The level of expressed mRNA in the absence of chemical substance (yeast gene YKR014C): 2.0
The level of expressed mRNA in the presence of chemical substance/The level of expressed mRNA in the absence of chemical substance (yeast gene YKR098C): 2.7
The level of expressed mRNA in the presence of chemical substance/The level of expressed mRNA in the absence of chemical substance (yeast gene YLL050C): 1.0
The level of expressed mRNA in the presence of chemical substance/The level of expressed mRNA in the absence of chemical substance (yeast gene YLL051C): 1.8
The level of expressed mRNA in the presence of chemical substance/The level of expressed mRNA in the absence of chemical substance (yeast gene YLR120C): 1.6
The level of expressed mRNA in the presence of chemical substance/The level of expressed mRNA in the absence of chemical substance (yeast gene YLR121C): 2.0
The level of expressed mRNA in the presence of chemical substance/The level of expressed mRNA in the absence of chemical substance (yeast gene YLR136C): 6.0
The level of expressed mRNA in the presence of chemical substance/The level of expressed mRNA in the absence of chemical substance (yeast gene YLR178C): 4.1
The level of expressed mRNA in the presence of chemical substance/The level of expressed mRNA in the absence of chemical substance (yeast gene YLR200W): 2.6
The level of expressed mRNA in the presence of chemical substance/The level of expressed mRNA in the absence of chemical substance (yeast gene YLR250W): 2.4
The level of expressed mRNA in the presence of chemical substance/The level of expressed mRNA in the absence of chemical substance (yeast gene YLR266C): 2.6
The level of expressed mRNA in the presence of chemical substance/The level of expressed mRNA in the absence of chemical substance (yeast gene YLR327C): 8.3
The level of expressed mRNA in the presence of chemical substance/The level of expressed mRNA in the absence of chemical substance (yeast gene YLR340W): 0.5
The level of expressed mRNA in the presence of chemical substance/The level of expressed mRNA in the absence of chemical substance (yeast gene YLR356W): 1.6
The level of expressed mRNA in the presence of chemical substance/The level of expressed mRNA in the absence of chemical substance (yeast gene YLR362W): 3.3
The level of expressed mRNA in the presence of chemical substance/The level of expressed mRNA in the absence of chemical substance (yeast gene YLR391W): 0.7
The level of expressed mRNA in the presence of chemical substance/The level of expressed mRNA in the absence of chemical substance (yeast gene YLR423C): 1.0
The level of expressed mRNA in the presence of chemical substance/The level of expressed mRNA in the absence of chemical substance (yeast gene YLR429W): 1.3
The level of expressed mRNA in the presence of chemical substance/The level of expressed mRNA in the absence of chemical substance (yeast gene YML130C): 4.2
The level of expressed mRNA in the presence of chemical substance/The level of expressed mRNA in the absence of chemical substance (yeast gene YMR004W): 3.4
The level of expressed mRNA in the presence of chemical substance/The level of expressed mRNA in the absence of chemical substance (yeast gene YMR094W): 0.9
The level of expressed mRNA in the presence of chemical substance/The level of expressed mRNA in the absence of chemical substance (yeast gene YMR104C): 3.2
The level of expressed mRNA in the presence of chemical substance/The level of expressed mRNA in the absence of chemical substance (yeast gene YMR110C): 1.6
The level of expressed mRNA in the presence of chemical substance/The level of expressed mRNA in the absence of chemical substance (yeast gene YMR214W): 1.0
The level of expressed mRNA in the presence of chemical substance/The level of expressed mRNA in the absence of chemical substance (yeast gene YMR219W): 0.9
The level of expressed mRNA in the presence of chemical substance/The level of expressed mRNA in the absence of chemical substance (yeast gene YMR226C): 2.2
The level of expressed mRNA in the presence of chemical substance/The level of expressed mRNA in the absence of chemical substance (yeast gene YMR255W): 2.4
The level of expressed mRNA in the presence of chemical substance/The level of expressed mRNA in the absence of chemical substance (yeast gene YMR275C): 2.1
The level of expressed mRNA in the presence of chemical substance/The level of expressed mRNA in the absence of chemical substance (yeast gene YMR276W): 1.7
The level of expressed mRNA in the presence of chemical substance/The level of expressed mRNA in the absence of chemical substance (yeast gene YMR297W): 1.0
The level of expressed mRNA in the presence of chemical substance/The level of expressed mRNA in the absence of chemical substance (yeast gene YMR314W): 2.7
The level of expressed mRNA in the presence of chemical substance/The level of expressed mRNA in the absence of chemical substance (yeast gene YNL006W): 4.0
The level of expressed mRNA in the presence of chemical substance/The level of expressed mRNA in the absence of chemical substance (yeast gene YNL007C): 1.7
The level of expressed mRNA in the presence of chemical substance/The level of expressed mRNA in the absence of chemical substance (yeast gene YNL083W): 1.6
The level of expressed mRNA in the presence of chemical substance/The level of expressed mRNA in the absence of chemical substance (yeast gene YNL093W): 2.0
The level of expressed mRNA in the presence of chemical substance/The level of expressed mRNA in the absence of chemical substance (yeast gene YNL135C): 0.5
The level of expressed mRNA in the presence of chemical substance/The level of expressed mRNA in the absence of chemical substance (yeast gene YNL139C): 0.7
The level of expressed mRNA in the presence of chemical substance/The level of expressed mRNA in the absence of chemical substance (yeast gene YNL333W): 2.1
The level of expressed mRNA in the presence of chemical substance/The level of expressed mRNA in the absence of chemical substance (yeast gene YNR010W): 0.9
The level of expressed mRNA in the presence of chemical substance/The level of expressed mRNA in the absence of chemical substance (yeast gene YNR069C): 5.8
The level of expressed mRNA in the presence of chemical substance/The level of expressed mRNA in the absence of chemical substance (yeast gene YOL013C): 1.0
The level of expressed mRNA in the presence of chemical substance/The level of expressed mRNA in the absence of chemical substance (yeast gene YOL038W): 2.7
The level of expressed mRNA in the presence of chemical substance/The level of expressed mRNA in the absence of chemical substance (yeast gene YOL164W): 3.6
The level of expressed mRNA in the presence of chemical substance/The level of expressed mRNA in the absence of chemical substance (yeast gene YOR028C): 2.0
The level of expressed mRNA in the presence of chemical substance/The level of expressed mRNA in the absence of chemical substance (yeast gene YOR036W): 1.9
The level of expressed mRNA in the presence of chemical substance/The level of expressed mRNA in the absence of chemical substance (yeast gene YOR058C): 4.5
The level of expressed mRNA in the presence of chemical substance/The level of expressed mRNA in the absence of chemical substance (yeast gene YOR117W): 1.8
The level of expressed mRNA in the presence of chemical substance/The level of expressed mRNA in the absence of chemical substance (yeast gene YOR124C): 1.9
The level of expressed mRNA in the presence of chemical substance/The level of expressed mRNA in the absence of chemical substance (yeast gene YOR132W): 1.6
The level of expressed mRNA in the presence of chemical substance/The level of expressed mRNA in the absence of chemical substance (yeast gene YOR149C): 1.0
The level of expressed mRNA in the presence of chemical substance/The level of expressed mRNA in the absence of chemical substance (yeast gene YOR157C): 2.6
The level of expressed mRNA in the presence of chemical substance/The level of expressed mRNA in the absence of chemical substance (yeast gene YOR181W): 0.5
The level of expressed mRNA in the presence of chemical substance/The level of expressed mRNA in the absence of chemical substance (yeast gene YOR185C): 2.9
The level of expressed mRNA in the presence of chemical substance/The level of expressed mRNA in the absence of chemical substance (yeast gene YOR198C): 1.4
The level of expressed mRNA in the presence of chemical substance/The level of expressed mRNA in the absence of chemical substance (yeast gene YOR259C): 1.5
The level of expressed mRNA in the presence of chemical substance/The level of expressed mRNA in the absence of chemical substance (yeast gene YOR261C): 2.5
The level of expressed mRNA in the presence of chemical substance/The level of expressed mRNA in the absence of chemical substance (yeast gene YOR285W): 2.9
The level of expressed mRNA in the presence of chemical substance/The level of expressed mRNA in the absence of chemical substance (yeast gene YOR288C): 1.0
The level of expressed mRNA in the presence of chemical substance/The level of expressed mRNA in the absence of chemical substance (yeast gene YOR298W): 1.0
The level of expressed mRNA in the presence of chemical substance/The level of expressed mRNA in the absence of chemical substance (yeast gene YOR355W): 0.8
The level of expressed mRNA in the presence of chemical substance/The level of expressed mRNA in the absence of chemical substance (yeast gene YOR383C): 4.5
The level of expressed mRNA in the presence of chemical substance/The level of expressed mRNA in the absence of chemical substance (yeast gene YPL001W): 1.0
The level of expressed mRNA in the presence of chemical substance/The level of expressed mRNA in the absence of chemical substance (yeast gene YPL020C): 1.6
The level of expressed mRNA in the presence of chemical substance/The level of expressed mRNA in the absence of chemical substance (yeast gene YPL089C): 2.5
The level of expressed mRNA in the presence of chemical substance/The level of expressed mRNA in the absence of chemical substance (yeast gene YPL109C): 1.5
The level of expressed mRNA in the presence of chemical substance/The level of expressed mRNA in the absence of chemical substance (yeast gene YPL124W): 1.0
The level of expressed mRNA in the presence of chemical substance/The level of expressed mRNA in the absence of chemical substance (yeast gene YPL149W): 3.7
The level of expressed mRNA in the presence of chemical substance/The level of expressed mRNA in the absence of chemical substance (yeast gene YPL154C): 1.7
The level of expressed mRNA in the presence of chemical substance/The level of expressed mRNA in the absence of chemical substance (yeast gene YPL177C): 1.0
The level of expressed mRNA in the presence of chemical substance/The level of expressed mRNA in the absence of chemical substance (yeast gene YPL220W): 0.5
The level of expressed mRNA in the presence of chemical substance/The level of expressed mRNA in the absence of chemical substance (yeast gene YPL230W): 2.7
The level of expressed mRNA in the presence of chemical substance/The level of expressed mRNA in the absence of chemical substance (yeast gene YPR081C): 2.6
The level of expressed mRNA in the presence of chemical substance/The level of expressed mRNA in the absence of chemical substance (yeast gene YPR103W): 2.0
The level of expressed mRNA in the presence of chemical substance/The level of expressed mRNA in the absence of chemical substance (yeast gene YPR108W): 2.8
The level of expressed mRNA in the presence of chemical substance/The level of expressed mRNA in the absence of chemical substance (yeast gene YPR149W): 1.8
The level of expressed mRNA in the presence of chemical substance/The level of expressed mRNA in the absence of chemical substance (yeast gene YPR168W): 2.7
